{
  "source": "ChEMBL document CHEMBL1201862",
  "about": "“PubChem BioAssay data set” (2004)",
  "key": {"[1]": {"assay": "cells"}, "[2]": {"assay": "antiviral protection against BTV-induced cell death – arbovirus, BSR cells, confirmation (AID 1250);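 note: protection from viral cytopathic effect measured as cell viability by ATP luminescence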", "assay_type": "functional"}, "[3]": {"target": "Long-chain-fatty-acid--AMP ligase FadD28 (Mycobacterium tuberculosis, UniProt P9WQ59)", "sequence (P9WQ59 whole entry)": "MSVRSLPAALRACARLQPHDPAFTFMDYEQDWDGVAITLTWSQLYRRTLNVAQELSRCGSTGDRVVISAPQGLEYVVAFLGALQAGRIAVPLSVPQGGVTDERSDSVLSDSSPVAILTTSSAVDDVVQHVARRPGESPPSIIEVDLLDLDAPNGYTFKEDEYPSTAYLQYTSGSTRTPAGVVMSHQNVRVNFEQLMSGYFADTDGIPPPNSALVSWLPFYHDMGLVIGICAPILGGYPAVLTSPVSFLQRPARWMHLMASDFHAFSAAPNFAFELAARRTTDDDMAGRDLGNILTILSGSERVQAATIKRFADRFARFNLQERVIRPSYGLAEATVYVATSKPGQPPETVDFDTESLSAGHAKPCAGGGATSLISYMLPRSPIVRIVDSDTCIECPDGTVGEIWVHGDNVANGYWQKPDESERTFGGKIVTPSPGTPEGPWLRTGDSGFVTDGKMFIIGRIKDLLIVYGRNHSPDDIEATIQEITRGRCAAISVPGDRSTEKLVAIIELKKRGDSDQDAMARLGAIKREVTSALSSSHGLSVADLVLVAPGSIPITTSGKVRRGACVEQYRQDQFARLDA", "assay": "Fluorescence polarization aasay to screen for inhibitors that compete for the binding of FadD28 to a bisubstrate Measured in Biochemical System Using Plate Reader - 2147-01_Inhibitor_Dose_CherryPick_Activity.", "assay_type": "functional, Mycobacterium tuberculosis H37Rv"}, "[4]": {"assay": "viability of uninfected HEp-2 cells – cell-based, HTS, cytotoxicity control for RSV inhibitor project, dose response (AID 2410)", "assay_type": "functional", "conditions": "human respiratory syncytial virus"}, "[5]": {"target": "T1, Neuropeptide Y receptor type 1 (Homo sapiens, UniProt P25929)", "T1 sequence (P25929 whole entry)": "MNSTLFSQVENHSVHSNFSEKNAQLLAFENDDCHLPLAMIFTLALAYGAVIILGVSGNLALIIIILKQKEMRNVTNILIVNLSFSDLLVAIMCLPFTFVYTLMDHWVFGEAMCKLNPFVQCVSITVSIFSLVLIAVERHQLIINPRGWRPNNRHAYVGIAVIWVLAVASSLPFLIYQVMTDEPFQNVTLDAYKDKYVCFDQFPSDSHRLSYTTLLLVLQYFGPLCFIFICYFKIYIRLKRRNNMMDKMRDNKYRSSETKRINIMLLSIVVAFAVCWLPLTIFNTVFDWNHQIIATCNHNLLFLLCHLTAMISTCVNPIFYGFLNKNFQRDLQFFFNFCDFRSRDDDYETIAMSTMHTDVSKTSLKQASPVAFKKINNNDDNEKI", "assay_type": "functional"}, "[6]": {"target": "T2, Neuropeptide Y receptor type 2 (Homo sapiens, UniProt P49146)", "T2 sequence (P49146 whole entry)": "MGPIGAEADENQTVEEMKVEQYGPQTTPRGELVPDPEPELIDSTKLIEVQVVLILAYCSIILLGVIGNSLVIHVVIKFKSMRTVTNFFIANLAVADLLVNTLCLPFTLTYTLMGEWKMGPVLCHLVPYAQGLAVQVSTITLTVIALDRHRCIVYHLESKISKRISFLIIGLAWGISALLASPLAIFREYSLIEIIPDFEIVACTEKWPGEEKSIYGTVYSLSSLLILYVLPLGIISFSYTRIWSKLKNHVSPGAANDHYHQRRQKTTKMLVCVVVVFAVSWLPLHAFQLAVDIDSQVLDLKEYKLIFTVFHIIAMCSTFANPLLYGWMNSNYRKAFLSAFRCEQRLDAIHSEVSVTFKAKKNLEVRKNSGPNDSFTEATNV", "assay_type": "functional, cell-based"}, "[7]": {"assay": "Luminescence Cell-Based Dose Response HTS to Identify Inhibitors of 5'UTR Stem-Loop Driven Prion Protein mRNA Translation in H4 Neuroglioblastoma Cells. [Related pubchem assays: 1827 (Project Summary), 1813 (Primary HTS)]", "assay_type": "functional"}, "[8]": {"assay": "alpha-synuclein stem-loop luciferase translation blockers – H4 neuroglioma cells, luminescence, confirmation (AID 1988)", "assay_type": "functional, cell-based"}, "[9]": {"assay": "alpha-synuclein stem-loop translation blockers – luminescence, H4 neuroglioblastoma cells, dose confirmation, confirmation (AID 2454);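 note: potency for inhibition of the luciferase signal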", "assay_type": "functional, cell-based"}, "[10]": {"assay": "Luminescence-based dose response cell-based high throughput screening assay for cytotoxic compounds using the IEC-6 intestinal epithelial cell line. [Related pubchem assays: 1858 (Summary AID.), 1825 (Counterscreen.), 1907 (Confirmation screen.)]", "assay_type": "functional"}, "[11]": {"test_system": "BJ", "assay": "BJ-TERT-LT-ST fibroblast viability loss – cell-based, RAS-independent, luminescence, dose response (AID 1935);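 note: BJ fibroblasts immortalized with TERT plus LT and ST oncogenes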", "assay_type": "functional", "conditions": "Homo sapiens"}, "[12]": {"test_system": "BJ", "assay": "cells", "assay_type": "functional, cell-based", "conditions": "Homo sapiens"}, "[13]": {"test_system": "BJ", "assay": "growth inhibition of engineered Ras-driven BJ cells – cell-based, alamar blue fluorescence, cherrypicked samples, dose response (AID 2631)", "assay_type": "functional", "conditions": "Homo sapiens"}, "[14]": {"assay": "luciferase reporter signal suppression in cells – H4 neuroglioma cells, luminescence, dose response (AID 1990)", "assay_type": "functional, cell-based"}, "[15]": {"assay": "luciferase reporter signal reduction – luminescence, H4-C neuroglioblastoma cells, dose response (AID 2458);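 note: H4 neuroglioblastoma cells stably carrying a luciferase reporter gene fusion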", "assay_type": "functional, cell-based"}, "[16]": {"assay": "cells", "assay_type": "functional, cell-based"}, "[17]": {"test_system": "HEK293", "assay": "EBV LMP1 TES2 canonical NF-kB signalling blockers – cell-based, HEK293, luciferase, cherry-pick, dose response (AID 588343)", "assay_type": "functional", "conditions": "Homo sapiens"}, "[18]": {"target": "T3, Aminopeptidase N (Plasmodium falciparum FcB1/Columbia, UniProt O96935)", "T3 sequence (O96935 whole entry)": "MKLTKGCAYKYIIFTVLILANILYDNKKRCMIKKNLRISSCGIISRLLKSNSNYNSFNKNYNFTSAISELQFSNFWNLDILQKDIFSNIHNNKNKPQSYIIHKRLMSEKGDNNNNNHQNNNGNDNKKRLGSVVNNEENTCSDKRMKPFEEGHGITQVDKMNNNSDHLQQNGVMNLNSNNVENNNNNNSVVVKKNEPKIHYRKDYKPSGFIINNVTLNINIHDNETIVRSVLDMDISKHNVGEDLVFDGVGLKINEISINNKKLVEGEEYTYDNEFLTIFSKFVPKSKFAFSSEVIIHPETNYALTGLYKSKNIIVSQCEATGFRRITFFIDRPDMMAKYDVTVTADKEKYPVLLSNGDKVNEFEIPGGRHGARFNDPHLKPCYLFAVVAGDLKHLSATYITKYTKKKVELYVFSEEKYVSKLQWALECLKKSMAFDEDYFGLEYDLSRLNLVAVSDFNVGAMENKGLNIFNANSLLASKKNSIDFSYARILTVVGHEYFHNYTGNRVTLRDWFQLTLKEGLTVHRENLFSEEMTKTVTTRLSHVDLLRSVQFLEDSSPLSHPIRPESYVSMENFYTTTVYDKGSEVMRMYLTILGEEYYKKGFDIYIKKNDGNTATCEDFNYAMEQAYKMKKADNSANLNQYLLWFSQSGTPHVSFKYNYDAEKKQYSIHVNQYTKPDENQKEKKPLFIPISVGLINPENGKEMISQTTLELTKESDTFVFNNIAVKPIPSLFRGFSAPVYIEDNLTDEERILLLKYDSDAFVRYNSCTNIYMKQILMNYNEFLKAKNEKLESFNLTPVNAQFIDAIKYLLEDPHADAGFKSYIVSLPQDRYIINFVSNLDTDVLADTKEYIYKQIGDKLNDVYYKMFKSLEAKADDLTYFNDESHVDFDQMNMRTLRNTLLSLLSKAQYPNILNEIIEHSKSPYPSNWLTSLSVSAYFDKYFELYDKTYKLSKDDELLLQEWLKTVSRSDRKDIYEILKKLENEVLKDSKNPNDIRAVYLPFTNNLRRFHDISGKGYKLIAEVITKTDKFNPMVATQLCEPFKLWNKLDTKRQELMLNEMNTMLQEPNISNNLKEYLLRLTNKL", "assay": "malaria alanyl aminopeptidase activity blockers – biochemical, fluorogenic H-Leu-NHMec substrate, 1536-well (AID 1445)", "design": "species or system Plasmodium falciparum 3D7, 3D7"}, "[19]": {"test_system": "BJ", "assay": "BJ-TERT fibroblast viability loss – cell-based, RAS-independent, luminescence, dose response (AID 1933)", "assay_type": "functional", "conditions": "Homo sapiens"}, "[20]": {"target": "Ion channel NompC (Danio rerio, UniProt Q7T1G6)", "sequence (Q7T1G6 whole entry)": "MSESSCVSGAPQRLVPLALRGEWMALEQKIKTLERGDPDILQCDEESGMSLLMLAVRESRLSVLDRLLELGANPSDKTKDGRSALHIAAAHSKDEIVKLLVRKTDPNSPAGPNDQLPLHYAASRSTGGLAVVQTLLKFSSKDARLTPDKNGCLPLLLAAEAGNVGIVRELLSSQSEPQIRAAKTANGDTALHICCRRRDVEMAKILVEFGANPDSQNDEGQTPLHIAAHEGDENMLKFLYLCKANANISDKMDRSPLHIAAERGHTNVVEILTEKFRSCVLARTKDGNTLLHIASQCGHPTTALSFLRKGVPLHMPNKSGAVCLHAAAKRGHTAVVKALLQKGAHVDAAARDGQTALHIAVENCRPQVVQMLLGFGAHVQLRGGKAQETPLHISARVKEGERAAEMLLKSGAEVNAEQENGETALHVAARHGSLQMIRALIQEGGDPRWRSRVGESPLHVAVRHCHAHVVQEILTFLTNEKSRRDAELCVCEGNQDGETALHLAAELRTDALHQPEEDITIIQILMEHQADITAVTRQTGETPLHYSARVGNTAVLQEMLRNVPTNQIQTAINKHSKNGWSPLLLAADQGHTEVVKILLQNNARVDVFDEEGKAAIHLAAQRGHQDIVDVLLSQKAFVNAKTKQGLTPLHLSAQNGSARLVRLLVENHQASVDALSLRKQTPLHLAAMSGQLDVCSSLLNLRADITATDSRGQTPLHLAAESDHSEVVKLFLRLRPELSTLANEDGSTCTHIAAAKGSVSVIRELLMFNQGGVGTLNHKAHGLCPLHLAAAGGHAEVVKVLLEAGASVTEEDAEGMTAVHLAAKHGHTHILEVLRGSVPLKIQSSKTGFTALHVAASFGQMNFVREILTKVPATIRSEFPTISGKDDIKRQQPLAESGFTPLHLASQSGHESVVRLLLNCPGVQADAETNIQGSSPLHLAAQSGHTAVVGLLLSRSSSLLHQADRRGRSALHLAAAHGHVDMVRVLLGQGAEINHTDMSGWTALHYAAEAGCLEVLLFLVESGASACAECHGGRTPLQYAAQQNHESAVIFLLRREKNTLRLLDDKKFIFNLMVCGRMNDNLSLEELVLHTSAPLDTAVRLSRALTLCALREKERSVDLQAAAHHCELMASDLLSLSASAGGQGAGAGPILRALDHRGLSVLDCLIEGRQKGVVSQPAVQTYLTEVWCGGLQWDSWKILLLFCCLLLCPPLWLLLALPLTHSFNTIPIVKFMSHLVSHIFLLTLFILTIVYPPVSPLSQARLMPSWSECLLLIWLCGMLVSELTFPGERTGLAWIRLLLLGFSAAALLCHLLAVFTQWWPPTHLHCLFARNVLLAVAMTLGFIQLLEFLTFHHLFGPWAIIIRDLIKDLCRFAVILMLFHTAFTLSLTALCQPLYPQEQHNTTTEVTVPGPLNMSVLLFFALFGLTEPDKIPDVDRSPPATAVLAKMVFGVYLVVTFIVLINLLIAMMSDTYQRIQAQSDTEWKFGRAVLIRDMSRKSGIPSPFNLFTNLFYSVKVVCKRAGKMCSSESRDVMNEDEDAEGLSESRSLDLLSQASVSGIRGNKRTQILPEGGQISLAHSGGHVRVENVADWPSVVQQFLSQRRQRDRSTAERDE", "assay": "Fluorescence counterscreen assay for TRPML3 agonists: dose response cell-based high-throughput screening assay to identify agonists of the transient receptor potential channel N1 (TRPN1). [Related pubchem assays: 1526, 1424, 1448 ]", "assay_type": "functional"}, "[21]": {"target": "Mucolipin-3 (Homo sapiens, UniProt Q8TDD5)", "sequence (Q8TDD5 whole entry)": "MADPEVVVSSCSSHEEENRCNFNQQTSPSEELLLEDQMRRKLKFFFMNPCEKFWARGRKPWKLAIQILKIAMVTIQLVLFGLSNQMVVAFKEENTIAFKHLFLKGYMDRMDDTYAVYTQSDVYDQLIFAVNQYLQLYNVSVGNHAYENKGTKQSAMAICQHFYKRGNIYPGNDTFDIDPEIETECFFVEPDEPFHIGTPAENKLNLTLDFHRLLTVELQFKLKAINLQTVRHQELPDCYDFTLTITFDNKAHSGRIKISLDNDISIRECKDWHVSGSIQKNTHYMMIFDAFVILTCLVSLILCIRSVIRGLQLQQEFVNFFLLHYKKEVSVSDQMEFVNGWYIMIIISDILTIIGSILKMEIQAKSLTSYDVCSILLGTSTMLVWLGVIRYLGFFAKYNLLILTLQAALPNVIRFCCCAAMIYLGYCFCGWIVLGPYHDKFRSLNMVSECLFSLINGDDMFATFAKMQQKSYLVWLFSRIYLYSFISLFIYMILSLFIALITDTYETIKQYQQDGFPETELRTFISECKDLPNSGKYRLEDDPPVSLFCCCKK", "assay": "Dose response cell-based high-throughput screening assay for agonists of the transient receptor potential channel ML3 (TRPML3). [Related pubchem assays: 1526, 1424, 1448 ]", "assay_type": "functional"}},
  "note": "The source made the active and inactive calls.",
  "data": [
    {"smiles": "CCC1=NN2C(=N)/C(=C\\c3cccn3-c3c(C)cccc3C)C(=O)N=C2S1", "values": [
      {"measurement": "IC50", "setting": "[1]", "result": "20.7 µM (active)"},
      {"measurement": "IC50", "setting": "[2]", "result": "38.4 µM (active)"},
      {"measurement": "AC50", "setting": "[3]", "result": "> 100 µM (inactive)"},
      {"measurement": "CC50", "setting": "[4]", "result": "19.5 µM (active)"}
    ]},
    {"smiles": "O=C(C1CCN(Cc2ccc(Cl)cc2)CC1)N1CCN(C(c2ccccc2)c2ccccc2)CC1", "values": [
      {"measurement": "IC50", "setting": "[5]", "result": "> 35 µM (not active)"},
      {"measurement": "IC50", "setting": "[6]", "result": "> 35 µM (not active)"}
    ]},
    {"smiles": "Cc1nc(N)nc(N)c1/C=C/C(C)(C)c1ccc(Cl)cc1", "values": [
      {"measurement": "EC50", "setting": "[7]", "result": "< 0.1 µM (active)"},
      {"measurement": "EC50", "setting": "[8]", "result": "< 0.1 µM (active)"},
      {"measurement": "EC50", "setting": "[9]", "result": "< 0.001 µM (active)"},
      {"measurement": "IC50", "setting": "[10]", "result": "> 0.00202 µM (active)"},
      {"measurement": "EC50", "setting": "[11]", "result": "> 150 µM (inconclusive)"},
      {"measurement": "EC50", "setting": "[12]", "result": "< 0.12 µM (active)"},
      {"measurement": "EC50", "setting": "[13]", "result": "> 133 µM (inactive)"},
      {"measurement": "EC50", "setting": "[14]", "result": "< 0.1 µM (active)"},
      {"measurement": "EC50", "setting": "[15]", "result": "0.009 µM (active)"},
      {"measurement": "EC50", "setting": "[16]", "result": "0.012 µM (active)"},
      {"measurement": "AC50", "setting": "[17]", "result": "0.0458 µM (active)"},
      {"measurement": "IC50", "setting": "[18]", "result": "66.2 µM (active)"},
      {"measurement": "EC50", "setting": "[19]", "result": "15.9 µM (active)"}
    ]},
    {"smiles": "COC(=O)c1cc(-c2ccc(S(=O)(=O)N3CCCCC3)cc2)c(C(F)(F)F)s1", "values": [
      {"measurement": "EC50", "setting": "[20]", "result": "> 29.9 µM (not active)"},
      {"measurement": "EC50", "setting": "[21]", "result": "> 29.9 µM (not active)"}
    ]}
  ]
}
